Where two headings read alike, the source gives them in different places.
Experiments:
MDA-MB-231-BR-Luc2 cells = assay: Growth of intracranially injected breast cancer cells in the brain, luciferase imaging; assay type: in vivo, female athymic nude mice; details: for brain tumor photon counts, day 0: day 0, 10 second exposure; for brain tumor photon counts, day 0 / brain tumor photon counts, day 7: one mouse each, AF 2.2 mg/kg ip, paclitaxel 20 mg/kg ip on days 0 and 4; for brain tumor photon counts, day 7: day 7, 10 second exposure
Procedure: Referring to FIG. 15, A brain-seeking clone of the MDA-MB-231 triple negative breast cancer cell line stably transfected with luciferase was injected intracranially (1×10^6 MDA-MB-231-BR-Luc2 cells in 5 μL PBS) into female athymic nude mice. […] On day 7, mice were again imaged as described above (FIGS. 15C, D). The brain tumor in the mouse treated with taccalonolide AF measured 2.2×10^3 photon counts with an exposure time of 10 seconds on day 0 but was undetectable with the same 10 second exposure time on day 7. A longer exposure time of 60 seconds gave a photon count of 2.4×10^3.

[1] = tested on: SK-OV-3/MDR-1-6/6 cell line; assay: Inhibition of cellular proliferation, SRB assay, P-glycoprotein expressing SK-OV-3/MDR-1-6/6 cells; assay type: cell-based; details: for IC50: SK-OV-3/MDR-1-6/6, average of 3-4 independent experiments; for relative resistance (Rr): IC50 SK-OV-3/MDR-1-6/6 divided by IC50 SK-OV-3
Procedure: (§1) The HeLa cervical cancer cell line, the SK-OV-3 ovarian cancer cell line and the PC-3 prostate cancer cell line were obtained from American Type Tissue Culture Collection (Manassas, Va.) and grown in Basal Media Eagle (BME) or RPMI 1640 medium (Invitrogen; Carlsbad, Calif.) supplemented with 10% fetal bovine serum (Hyclone; Logan, Utah) and 50 μg/ml gentamicin sulfate (Invitrogen). The P-glycoprotein expressing SK-OV-3/MDR-1-6/6 cell line and the βIII-tubulin expressing WTβIII cell line have been described previously (Risinger et al., 2008).
(§2) The antiproliferative and cytotoxic effects of the taccalonolides were evaluated using the SRB assay (Skehan et al., 1990, Boyd and Paull, 1995) as previously described (Tinley et al., 2003). The concentration of drug that causes 50% inhibition of cellular proliferation (IC50) was calculated from the linear portion of the log dose response curve. The ability of the compounds to initiate cytotoxicity was also determined. […] The determination of IC50 values was performed on taccalonolide material after NMR analysis and subsequent lyophilization. Ethanol or DMSO was used as the vehicle for all cellular studies.
(§3) The ability of taccalonolides AF and AJ to inhibit the proliferation of both drug sensitive cancer cells, including ovarian cancer cells (SK-OV-3), cervical cancer cells (HeLa) and prostate cancer cells (PC-3) and drug resistant cells, including the P-glycoprotein expressing SK-OV-3 line (SK-OV-3/MDR-1-6/6) and the βIII-tubulin expressing HeLa cell line (WTβIII) was determined.
(§4) Referring to Table 3, the effect of the taccalonolides in drug resistant and sensitive cells is shown. IC50 values for inhibition of cellular proliferation for taccalonolides AF and AJ were determined in drug sensitive and drug resistant cell lines. The HeLa cell pair evaluated the effect of βIII tubulin expression on cell sensitivity and the ability of compounds to overcome drug resistance mediated by βIII tubulin expression. The SK-OV-3 cell line pair was used to evaluate the effects of the expression of P-glycoprotein (Pgp) on cell sensitivity and the ability of compounds to overcome Pgp-mediated drug resistence. The effects of the taccalonolides on the drug senstive prostate cancer cell line PC-3 are also presented. IC50 values were calculated from an average of 3-4 independent experiments, each performed in triplicate.

HeLa cells [2] = assay: Cell cycle distribution by flow cytometry; details: 18 h, 125 nM AF, 200 nM AI, 35 nM AJ
[3] = tested on: βIII-tubulin expressing HeLa cell line (WTβIII); assay: Inhibition of cellular proliferation, SRB assay, βIII-tubulin expressing WTβIII cell line; assay type: cell-based; details: for IC50: WTβIII, average of 3-4 independent experiments; for relative resistance (Rr): IC50 WTβIII divided by IC50 HeLa
Procedure: as §1, §2, §3, §4

[4] = tested on: PC-3 prostate cancer cell line; assay: Inhibition of cellular proliferation, SRB assay, PC-3 cells; assay type: cell-based; details: average of 3-4 independent experiments
Procedure: as §1, §2, §3
(§5) Referring to Table 3, the effect of the taccalonolides in drug resistant and sensitive cells is shown. IC50 values for inhibition of cellular proliferation for taccalonolides AF and AJ were determined in drug sensitive and drug resistant cell lines. The HeLa cell pair evaluated the effect of βIII tubulin expression on cell sensitivity and the ability of compounds to overcome drug resistance mediated by βIII tubulin expression. […] IC50 values were calculated from an average of 3-4 independent experiments, each performed in triplicate.

[5] = tested on: SK-OV-3 ovarian cancer cell line; assay: Inhibition of cellular proliferation, SRB assay, SK-OV-3 cells; assay type: cell-based; details: average of 3-4 independent experiments
Procedure: as §1, §2, §3, §5

[6] = tested on: MDA-MB-231 human breast tumors; assay: Antitumor activity in MDA-MB-231 breast tumor xenograft; assay type: in vivo, Nude mice; details: 2.5 mg/kg on days 0 and 4 or 2.0 mg/kg on days 0, 3, and 7
Procedure: The ability of taccalonolide AF to inhibit the growth of the aggressive human breast tumor MDA-MB-231 in a murine host was determined. Taccalonolide AF was administered at a dose of 2.5 mg/kg on days 0 and 4 or 2.0 mg/kg on days 0, 3, and 7.
Referring to FIG. 6, Nude mice bearing bilateral MDA-MB-231 human breast tumors were treated with 2.0 mg/kg of AF on days 0, 3 and 7, 2.5 mg/kg AF on days 0 and 4, or 10 mg/kg PTX on days 0, 2, 4 and 7 as a positive control. Tumor volume was measured using calipers and mass calculated with the formula: Tumor mass (mg)=0.5×[…]. Median tumor mass with standard error of the mean (n=10) are graphically represented. *p<0.05, **p<0.01.

[7] = tested on: purified porcine brain tubulin; assay: Tubulin polymerization followed turbidimetrically; assay type: biochemical; details: 10 μM compound, 2 mg/ml tubulin, 10% glycerol, 1 mM GTP, 37° C., OD340
Procedure: The ability of these new potent taccalonolides to interact directly with tubulin was assessed by incubating purified porcine brain tubulin at a concentration of 2 mg/ml in the presence of 10% glycerol and 1 mM GTP, which allows for a baseline level of tubulin polymerization that can be followed turbidimetrically (FIG. 5).
Tubulin polymerization was monitored by turbidity measurement at OD340.

[8] = tested on: human mammary epithelial cells; assay: Cytotoxicity to normal cells; assay type: cell-based; details: concentrations 5 to 100-fold the IC50 values in the HeLa cancer cell line
HeLa cells [9] = assay: Mitotic spindle structures, indirect immunofluorescence; assay type: cell-based; details: 18 h, 125 nM AF, 200 nM AI, 35 nM AJ
Procedure: Cellular microtubules in interphase and mitotic HeLa cells were visualized using indirect immunofluorescence techniques as previously described (Tinley et al., 2003). […] Representative images of interphase and mitotic cells were acquired using a Nikon Eclipse 80i fluorescence microscope and compiled using NIS Elements AR 3.0 software.
The effects of the taccalonolides on mitotic spindle structures were evaluated to test whether they caused mitotic spindle defects leading to cell cycle arrest. β-tubulin and DNA were visualized in HeLa cells by indirect immunofluorescence and DAPI staining, respectively. […] These mitotic cells contained multiple abnormal mitotic spindles, which is another common effect of microtubule stabilizing agents (FIGS. 4A-D).
The microtubule structures in mitotic cells were visualized by indirect immunofluorescence using a β-tubulin antibody.

HeLa cells [10] = assay: Inhibition of cellular proliferation, SRB assay, HeLa cells; assay type: cell-based; details: for increase in potency as compared to the parent taccalonolide on C22-C23 epoxidation: HeLa IC50 ratio, parent/epoxide
Procedure: The ability of the compounds to initiate cytotoxicity was also determined. […] The determination of IC50 values was performed on taccalonolide material after NMR analysis and subsequent lyophilization. Ethanol or DMSO was used as the vehicle for all cellular studies.
The antiproliferative potencies of the taccalonolides were evaluated in HeLa cells using the SRB assay.

[11] = HeLa cells, SRB assay, read-out: IC50
[12] = HeLa, average of 3-4 independent experiments, read-out: IC50 for inhibition of cellular proliferation, HeLa

| Compound | brain tumor photon counts, day 0 (MDA-MB-231-BR-Luc2 cells) | brain tumor photon counts, day 7 (MDA-MB-231-BR-Luc2 cells) | relative resistance (Rr) [1] | IC50 [1] [nM] | rate and extent of tubulin polymerization [7] | cytotoxicity of normal cells [8] | effect on mitotic spindle structures (HeLa cells [9]) | relative resistance (Rr) [3] | IC50 [3] [nM] | increase in potency as compared to the parent taccalonolide on C22-C23 epoxidation (HeLa cells [10]) [fold] | IC50 (HeLa cells [10]; [11]) [nM] | IC50 (HeLa cells [10]; [12]) [nM] | IC50 [4] [nM] | IC50 [5] [nM] | other results |
| --- | --- | --- | --- | --- | --- | --- | --- | --- | --- | --- | --- | --- | --- | --- | --- |
| CC(=O)O[C@H]1C(=O)[C@@]2(C)[C@H]([C@H](OC(=O)c3ccccc3)[C@]3(O)C[C@H](OC(=O)[C@H](O)[C@@H](NC(=O)c4ccccc4)c4ccccc4)C(C)=C1C3(C)C)[C@]1(OC(C)=O)CO[C@@H]1C[C@@H]2O [Paclitaxel, paclitaxel, reference compound] | 1.8×10^4 photon counts | 9.0×10^4 photon counts |  |  |  |  |  |  |  |  |  |  |  |  | IC50 ([1]; Homo sapiens): 785 ± 88 nM; effect on mitotic progression / cell cycle distribution (HeLa cells [2]): mitotic arrest; IC50 ([3]; Homo sapiens, HeLa): 17.8 ± 1.2 nM; IC50 ([4]; Homo sapiens): 3.7 ± 0.2 nM; IC50 ([5]; Homo sapiens): 3.8 ± 0.2 nM |
| CC(=O)O[C@@H]1[C@H]2[C@H]3[C@H]([C@H](OC(C)=O)[C@H](OC(C)=O)[C@]2(C)[C@H]2[C@H](C)[C@H]4O[C@]45OC(=O)[C@@](C)(O)[C@]5(C)[C@@H]12)[C@]1(C)[C@H](C[C@@H]2O[C@@H]2[C@@H]1OC(C)=O)C(=O)[C@@H]3O [Taccalonolide AF] | 2.2×10^3 photon counts | undetectable | (4.6) | 366 ± 30.6 | dramatically increased | No cytotoxicity | mitotic arrest of cells with multiple abnormal mitotic spindles | (1.3) | 30.6 ± 3.3 | 234 | 23 | 23.6 ± 2.1 | 128 ± 16 | 79.4 ± 3.5 | brain tumor photon count, day 7, longer exposure (MDA-MB-231-BR-Luc2 cells; day 7, 60 seconds exposure, AF 2.2 mg/kg ip on days 0 and 4): 2.4×10^3 photon count; antitumor activity compared to vehicle treated controls [6]: sufficient to observe antitumor activity; antitumor activity compared to positive control 10 mg/kg paclitaxel ([6]; paclitaxel days 0, 2, 4 and 7): equivalent or greater than the positive control |
| CC(=O)O[C@H]1C[C@H]2[C@H]([C@@H]3[C@@H](O)[C@@H]4[C@H]([C@H](C)C=C5OC(=O)[C@@](C)(O)[C@@]54C)[C@]31C)[C@@H](O)C(=O)[C@H]1C[C@@H]3O[C@@H]3[C@H](OC(=O)CC(C)C)[C@@]12C [Taccalonolide AI] |  |  |  |  |  |  | mitotic arrest of cells with multiple abnormal mitotic spindles |  |  |  |  |  |  |  | IC50 (HeLa cells [10]; HeLa cells, SRB assay, parent taccalonolide, read-out: IC50): 47 nM |
| CC(=O)O[C@H]1[C@H]2[C@H]([C@@H]3[C@@H](O)[C@@H]4[C@H]([C@H](C)[C@@H]5O[C@@]56OC(=O)[C@@](C)(O)[C@]46C)[C@@]3(C)[C@H]1OC(C)=O)[C@@H](O)C(=O)[C@H]1C[C@@H]3O[C@@H]3[C@H](OC(C)=O)[C@]21C [Taccalonolide AJ] |  |  | (7.8) | 126 ± 12.8 | dramatically increased | No cytotoxicity | mitotic arrest of cells with multiple abnormal mitotic spindles | (1.7) | 11.1 ± 0.6 | 743 | 4.3 | 6.6 ± 0.3 | 25.1 ± 4 | 16.3 ± 0.8 |  |
